ChEMBL document CHEMBL4270481, “ALK5 kinase inhibitory activity and synthesis of 2,3,4-substituted 5,5-dimethyl-5,6-dihydro-4H-pyrrolo[1,2-b]pyrazoles” (Eur J Med Chem, 2017)
The source made the active and inactive calls. The rule behind the calls is not given here.

Columns and labels:
[1] = molecular target: SRSF protein kinase 1 (Homo sapiens) (UniProt Q96SB4); assay: Inhibition of SRPK1 (unknown origin) assessed as residual enzyme activity at 1 uM relative to untreated control
[2] = molecular target: Serine/threonine-protein kinase TBK1 (Homo sapiens) (UniProt Q9UHD2); assay: Inhibition of TBK1 (unknown origin) assessed as residual enzyme activity at 1 uM relative to untreated control
[3] = molecular target: Ephrin type-A receptor 2 (Homo sapiens) (UniProt P29317); assay: Inhibition of EPHA2 (unknown origin) assessed as residual enzyme activity at 1 uM relative to untreated control
Ephrin type-A receptor 2 (Homo sapiens), sequence (P29317 whole entry): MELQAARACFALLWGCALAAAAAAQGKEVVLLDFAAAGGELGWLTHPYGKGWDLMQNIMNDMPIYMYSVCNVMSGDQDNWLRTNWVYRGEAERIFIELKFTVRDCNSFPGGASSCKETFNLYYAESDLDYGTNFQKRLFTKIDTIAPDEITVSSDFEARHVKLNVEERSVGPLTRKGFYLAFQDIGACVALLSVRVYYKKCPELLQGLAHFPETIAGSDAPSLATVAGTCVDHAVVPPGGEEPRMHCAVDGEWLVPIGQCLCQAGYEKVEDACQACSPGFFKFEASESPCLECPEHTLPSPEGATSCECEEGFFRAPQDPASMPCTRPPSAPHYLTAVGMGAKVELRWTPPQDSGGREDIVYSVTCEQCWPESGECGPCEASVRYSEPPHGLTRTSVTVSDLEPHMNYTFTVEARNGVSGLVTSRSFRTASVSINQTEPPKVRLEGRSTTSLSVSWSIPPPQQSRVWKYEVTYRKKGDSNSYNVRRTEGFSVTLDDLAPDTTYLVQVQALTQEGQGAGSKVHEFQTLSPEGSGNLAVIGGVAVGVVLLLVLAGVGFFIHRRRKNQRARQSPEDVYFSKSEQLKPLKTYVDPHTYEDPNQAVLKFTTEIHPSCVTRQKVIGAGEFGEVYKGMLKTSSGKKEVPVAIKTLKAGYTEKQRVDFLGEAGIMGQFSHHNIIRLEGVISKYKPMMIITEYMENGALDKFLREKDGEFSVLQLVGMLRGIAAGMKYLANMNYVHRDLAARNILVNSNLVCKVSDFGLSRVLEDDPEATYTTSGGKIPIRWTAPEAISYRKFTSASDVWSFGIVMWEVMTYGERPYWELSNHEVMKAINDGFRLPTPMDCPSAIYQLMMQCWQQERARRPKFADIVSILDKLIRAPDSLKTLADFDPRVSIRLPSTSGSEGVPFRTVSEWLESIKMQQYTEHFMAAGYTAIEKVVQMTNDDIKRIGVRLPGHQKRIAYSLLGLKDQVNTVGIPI

[4] = molecular target: Rho-associated protein kinase 2 (Homo sapiens) (UniProt O75116); assay: Inhibition of ROCK2 (unknown origin) assessed as residual enzyme activity at 1 uM relative to untreated control
[5] = molecular target: Serine/threonine-protein kinase Nek6 (Homo sapiens) (UniProt Q9HC98); assay: Inhibition of NEK6 (unknown origin) assessed as residual enzyme activity at 1 uM relative to untreated control
Serine/threonine-protein kinase Nek6 (Homo sapiens), sequence (Q9HC98 whole entry): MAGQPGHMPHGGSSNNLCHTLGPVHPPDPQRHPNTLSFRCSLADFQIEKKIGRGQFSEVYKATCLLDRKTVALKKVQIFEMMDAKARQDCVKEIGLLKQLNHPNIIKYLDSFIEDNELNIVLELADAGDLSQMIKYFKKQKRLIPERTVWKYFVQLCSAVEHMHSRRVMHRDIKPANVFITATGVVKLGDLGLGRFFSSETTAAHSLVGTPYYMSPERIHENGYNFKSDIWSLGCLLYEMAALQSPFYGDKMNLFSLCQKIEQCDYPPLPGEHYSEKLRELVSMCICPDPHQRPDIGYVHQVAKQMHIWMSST

[6] = molecular target: Tyrosine-protein kinase ABL1 (Mus musculus, UniProt P00520); assay: biochemical; format: cell-based, Sf9
[7] = molecular target: T1, TGF-beta receptor type-1 (Homo sapiens) (UniProt P36897); assay: Inhibition of human ALK5 expressed in Sf9 insect cells assessed as residual enzyme activity at 1 uM using casein as substrate in presence of [gamma-33P]ATP relative to untreated control
T1 sequence (whole entry): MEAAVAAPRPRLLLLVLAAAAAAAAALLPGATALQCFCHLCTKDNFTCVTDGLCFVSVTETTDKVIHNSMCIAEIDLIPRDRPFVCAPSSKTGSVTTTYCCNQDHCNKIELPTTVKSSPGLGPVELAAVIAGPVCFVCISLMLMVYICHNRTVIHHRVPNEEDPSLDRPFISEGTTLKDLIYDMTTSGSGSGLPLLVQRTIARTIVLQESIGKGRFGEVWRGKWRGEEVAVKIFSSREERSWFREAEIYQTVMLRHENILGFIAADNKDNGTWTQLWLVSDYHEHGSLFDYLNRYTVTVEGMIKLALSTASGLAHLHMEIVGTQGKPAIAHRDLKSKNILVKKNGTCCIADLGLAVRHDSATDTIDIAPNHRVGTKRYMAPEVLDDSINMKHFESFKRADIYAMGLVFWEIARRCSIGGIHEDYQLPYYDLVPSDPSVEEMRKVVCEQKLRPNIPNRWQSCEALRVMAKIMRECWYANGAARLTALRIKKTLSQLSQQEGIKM

[8] = molecular target: MAP/microtubule affinity-regulating kinase 3 (Homo sapiens) (UniProt P27448); assay: Inhibition of MARK3 (unknown origin) assessed as residual enzyme activity at 1 uM relative to untreated control
[9] = molecular target: Serine/threonine-protein kinase PAK 4 (Homo sapiens) (UniProt O96013); assay: Inhibition of PAK4 (unknown origin) assessed as residual enzyme activity at 1 uM relative to untreated control
Serine/threonine-protein kinase PAK 4 (Homo sapiens), sequence (O96013 whole entry, looked up): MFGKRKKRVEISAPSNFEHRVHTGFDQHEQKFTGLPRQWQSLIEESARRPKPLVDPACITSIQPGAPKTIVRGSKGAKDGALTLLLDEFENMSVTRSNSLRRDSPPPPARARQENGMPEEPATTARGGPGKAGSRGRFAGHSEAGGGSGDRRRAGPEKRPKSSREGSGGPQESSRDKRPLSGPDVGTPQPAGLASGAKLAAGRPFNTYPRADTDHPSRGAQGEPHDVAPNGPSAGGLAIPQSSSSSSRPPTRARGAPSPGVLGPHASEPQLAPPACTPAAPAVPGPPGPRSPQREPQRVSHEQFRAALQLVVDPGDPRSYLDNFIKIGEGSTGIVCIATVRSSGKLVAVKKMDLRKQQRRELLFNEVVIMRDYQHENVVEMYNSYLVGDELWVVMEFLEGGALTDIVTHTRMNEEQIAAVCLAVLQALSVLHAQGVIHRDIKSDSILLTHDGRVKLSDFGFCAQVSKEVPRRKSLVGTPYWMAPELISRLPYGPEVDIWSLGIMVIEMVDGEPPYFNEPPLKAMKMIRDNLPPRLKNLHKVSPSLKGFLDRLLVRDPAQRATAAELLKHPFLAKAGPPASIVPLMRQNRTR

[10] = molecular target: Dual specificity protein kinase TTK (Homo sapiens) (UniProt P33981); assay: Inhibition of TTK (unknown origin) assessed as residual enzyme activity at 1 uM relative to untreated control
[11] = molecular target: Myosin light chain kinase, smooth muscle (Homo sapiens) (UniProt Q15746); assay: Inhibition of SmMLCK (unknown origin) assessed as residual enzyme activity at 1 uM relative to untreated control
[12] = molecular target: Mitogen-activated protein kinase kinase kinase 7 (Homo sapiens) (UniProt O43318); assay: Inhibition of TAK1 (unknown origin) assessed as residual enzyme activity at 1 uM relative to untreated control
[13] = molecular target: T1, TGF-beta receptor type-1 (Homo sapiens); assay: Inhibition of ALK5 in serum starved human HeLa cells assessed as reduction in TGF-beta-induced SMAD2/3 nuclear transaction at 10 uM pre-incubated for 30 mins before TGF-beta stimulation for 30 mins by immunofluorescence analysis; format: cell-based
[14] = molecular target: Homeodomain-interacting protein kinase 2 (Homo sapiens) (UniProt Q9H2X6); assay: Inhibition of HIPK2 (unknown origin) assessed as residual enzyme activity at 1 uM relative to untreated control
Homeodomain-interacting protein kinase 2 (Homo sapiens), sequence (Q9H2X6 whole entry, looked up): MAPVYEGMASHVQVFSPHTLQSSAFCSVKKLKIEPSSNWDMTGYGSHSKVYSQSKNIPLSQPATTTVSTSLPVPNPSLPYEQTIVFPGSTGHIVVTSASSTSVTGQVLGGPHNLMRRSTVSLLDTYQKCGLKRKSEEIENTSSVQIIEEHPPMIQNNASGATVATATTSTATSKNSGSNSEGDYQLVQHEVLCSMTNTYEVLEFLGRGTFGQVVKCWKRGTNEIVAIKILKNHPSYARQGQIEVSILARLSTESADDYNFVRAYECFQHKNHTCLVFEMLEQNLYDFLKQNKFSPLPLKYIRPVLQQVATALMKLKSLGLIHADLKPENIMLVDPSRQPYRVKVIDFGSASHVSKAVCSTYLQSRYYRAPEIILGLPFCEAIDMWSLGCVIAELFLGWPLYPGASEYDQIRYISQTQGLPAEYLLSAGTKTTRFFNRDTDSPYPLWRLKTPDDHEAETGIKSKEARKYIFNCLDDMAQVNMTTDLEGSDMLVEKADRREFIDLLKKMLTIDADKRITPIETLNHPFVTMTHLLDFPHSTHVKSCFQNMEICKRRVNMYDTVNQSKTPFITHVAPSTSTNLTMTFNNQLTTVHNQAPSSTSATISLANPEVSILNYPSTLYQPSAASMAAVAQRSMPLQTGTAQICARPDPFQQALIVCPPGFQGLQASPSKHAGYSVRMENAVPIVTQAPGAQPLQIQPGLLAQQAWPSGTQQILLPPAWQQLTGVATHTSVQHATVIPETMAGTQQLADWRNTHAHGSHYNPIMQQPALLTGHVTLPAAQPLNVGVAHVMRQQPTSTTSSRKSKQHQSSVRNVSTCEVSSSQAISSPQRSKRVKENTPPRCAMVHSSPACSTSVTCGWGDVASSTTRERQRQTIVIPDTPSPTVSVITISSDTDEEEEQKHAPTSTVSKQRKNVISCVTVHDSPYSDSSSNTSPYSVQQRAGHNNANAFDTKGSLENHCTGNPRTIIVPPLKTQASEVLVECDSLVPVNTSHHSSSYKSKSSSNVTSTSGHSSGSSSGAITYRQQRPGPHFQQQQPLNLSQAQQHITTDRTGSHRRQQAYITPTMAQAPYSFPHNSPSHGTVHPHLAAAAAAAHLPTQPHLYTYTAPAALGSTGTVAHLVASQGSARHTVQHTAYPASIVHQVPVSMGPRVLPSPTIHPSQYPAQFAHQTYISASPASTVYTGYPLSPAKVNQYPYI

[15] = molecular target: Serine/threonine-protein kinase STK11 (Homo sapiens) (UniProt Q15831); assay: Inhibition of LKB1 (unknown origin) assessed as residual enzyme activity at 1 uM relative to untreated control
[16] = molecular target: T2, TGF-beta receptor type-1 (Homo sapiens, UniProt P36897); assay: Inhibition of human ALK5 expressed in Sf9 insect cells using casein as substrate in presence of [gamma-33P]ATP; format: cell-based
T2 sequence (P36897 whole entry): T1 sequence (whole entry)

[17] = molecular target: T1, TGF-beta receptor type-1 (Homo sapiens); details: HeLa, at 1 µM
Description: Inhibition of ALK5 in serum starved human HeLa cells assessed as reduction in TGF-beta-induced SMAD2/3 nuclear transaction at 1 uM pre-incubated for 30 mins before TGF-beta stimulation for 30 mins by immunofluorescence analysis

[18] = molecular target: Tyrosine-protein kinase JAK2 (Homo sapiens) (UniProt O60674); assay: Inhibition of JAK2 (unknown origin) assessed as residual enzyme activity at 1 uM relative to untreated control
[19] = molecular target: High affinity nerve growth factor receptor (Homo sapiens) (UniProt P04629); assay: Inhibition of TRKA (unknown origin) assessed as residual enzyme activity at 1 uM relative to untreated control
High affinity nerve growth factor receptor (Homo sapiens), sequence (P04629 33-796 limits assumed): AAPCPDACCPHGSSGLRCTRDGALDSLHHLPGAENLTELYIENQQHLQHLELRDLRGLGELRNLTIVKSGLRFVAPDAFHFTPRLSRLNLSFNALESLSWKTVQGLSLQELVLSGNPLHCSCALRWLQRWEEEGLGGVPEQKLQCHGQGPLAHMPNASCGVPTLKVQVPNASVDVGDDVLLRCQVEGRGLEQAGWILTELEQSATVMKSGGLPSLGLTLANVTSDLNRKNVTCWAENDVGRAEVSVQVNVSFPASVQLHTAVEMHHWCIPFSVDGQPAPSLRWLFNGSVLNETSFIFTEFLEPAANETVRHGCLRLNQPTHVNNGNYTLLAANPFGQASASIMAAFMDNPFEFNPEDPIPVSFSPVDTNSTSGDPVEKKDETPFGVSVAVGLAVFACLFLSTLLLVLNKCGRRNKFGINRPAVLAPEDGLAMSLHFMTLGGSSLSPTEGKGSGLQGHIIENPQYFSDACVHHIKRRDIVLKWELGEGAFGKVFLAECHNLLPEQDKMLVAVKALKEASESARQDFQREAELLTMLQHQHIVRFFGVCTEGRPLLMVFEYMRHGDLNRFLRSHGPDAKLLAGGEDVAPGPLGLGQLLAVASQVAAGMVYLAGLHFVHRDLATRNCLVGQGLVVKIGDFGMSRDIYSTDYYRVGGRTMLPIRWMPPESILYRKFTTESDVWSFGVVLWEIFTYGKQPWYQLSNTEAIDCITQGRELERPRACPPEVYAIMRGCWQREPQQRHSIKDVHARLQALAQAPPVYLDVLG

[20] = molecular target: Insulin-like growth factor 1 receptor (Homo sapiens) (UniProt P08069); assay: Inhibition of IGF1R (unknown origin) assessed as residual enzyme activity at 1 uM relative to untreated control
[21] = molecular target: Receptor-interacting serine/threonine-protein kinase 2 (Homo sapiens) (UniProt O43353); assay: Inhibition of RIPK2 (unknown origin) assessed as residual enzyme activity at 1 uM relative to untreated control
[22] = molecular target: Mitogen-activated protein kinase kinase kinase 11 (Homo sapiens) (UniProt Q16584); assay: Inhibition of MLK3 (unknown origin) assessed as residual enzyme activity at 1 uM relative to untreated control
[23] = molecular target: Interleukin-1 receptor-associated kinase 4 (Homo sapiens) (UniProt Q9NWZ3); assay: Inhibition of IRAK4 (unknown origin) assessed as residual enzyme activity at 1 uM relative to untreated control
[24] = molecular target: T1, TGF-beta receptor type-1 (Homo sapiens); assay: Inhibition of ALK5 in serum starved human HeLa cells assessed as reduction in TGF-beta-induced SMAD2 S465/467 phosphorylation pre-incubated for 30 mins before TGF-beta stimulation for 30 mins by immunoblotting analysis; format: cell-based
[25] = molecular target: Glycogen synthase kinase-3 beta (Homo sapiens) (UniProt P49841); assay: Inhibition of GSK3beta (unknown origin) assessed as residual enzyme activity at 1 uM relative to untreated control
Glycogen synthase kinase-3 beta (Homo sapiens), sequence (P49841 whole entry, looked up): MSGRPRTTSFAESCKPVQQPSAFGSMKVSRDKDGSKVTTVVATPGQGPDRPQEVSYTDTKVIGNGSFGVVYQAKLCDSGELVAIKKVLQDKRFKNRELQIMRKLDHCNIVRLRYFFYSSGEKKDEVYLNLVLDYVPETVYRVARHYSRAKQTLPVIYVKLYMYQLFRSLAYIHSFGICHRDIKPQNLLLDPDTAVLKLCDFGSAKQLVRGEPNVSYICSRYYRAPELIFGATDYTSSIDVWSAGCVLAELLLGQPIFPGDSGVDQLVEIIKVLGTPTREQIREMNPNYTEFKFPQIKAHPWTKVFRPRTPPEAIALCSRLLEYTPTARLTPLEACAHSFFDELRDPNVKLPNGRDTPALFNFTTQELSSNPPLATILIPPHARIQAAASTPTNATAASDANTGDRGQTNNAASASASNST

[26] = molecular target: AMP-activated protein kinase, AMPK (Homo sapiens) (UniProt P54646+O43741+P54619+Q9UGJ0+Q9Y478+Q13131+Q9UGI9); assay: Inhibition of AMPK (unknown origin) assessed as residual enzyme activity at 1 uM relative to untreated control; format: protein-complex assay
[27] = molecular target: Serine/threonine-protein kinase 3 (Homo sapiens) (UniProt Q13188); assay: Inhibition of MST2 (unknown origin) assessed as residual enzyme activity at 1 uM relative to untreated control
[28] = molecular target: Ribosomal protein S6 kinase alpha-5 (Homo sapiens) (UniProt O75582); assay: Inhibition of MSK1 (unknown origin) assessed as residual enzyme activity at 1 uM relative to untreated control

SRSF protein kinase 1 (Homo sapiens), sequence (Q96SB4 whole entry): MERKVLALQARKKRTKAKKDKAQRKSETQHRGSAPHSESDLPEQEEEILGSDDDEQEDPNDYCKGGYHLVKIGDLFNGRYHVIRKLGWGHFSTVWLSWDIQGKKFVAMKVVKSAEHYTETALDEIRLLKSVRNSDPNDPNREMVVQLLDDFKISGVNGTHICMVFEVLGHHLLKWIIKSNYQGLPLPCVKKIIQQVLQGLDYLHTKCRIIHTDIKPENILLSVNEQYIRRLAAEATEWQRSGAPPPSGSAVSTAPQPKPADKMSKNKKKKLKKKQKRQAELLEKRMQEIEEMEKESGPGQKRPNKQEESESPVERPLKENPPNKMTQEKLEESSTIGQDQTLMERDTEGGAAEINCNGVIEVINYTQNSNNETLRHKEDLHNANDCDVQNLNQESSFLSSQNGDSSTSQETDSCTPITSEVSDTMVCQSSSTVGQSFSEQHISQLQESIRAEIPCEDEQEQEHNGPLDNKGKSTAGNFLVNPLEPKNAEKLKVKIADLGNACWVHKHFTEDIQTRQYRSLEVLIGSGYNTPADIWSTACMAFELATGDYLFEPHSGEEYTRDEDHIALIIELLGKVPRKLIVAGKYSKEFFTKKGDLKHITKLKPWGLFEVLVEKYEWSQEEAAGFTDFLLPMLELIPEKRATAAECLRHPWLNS

Cc1cccc(-c2nn3c(c2-c2ccc(O)cc2)C(C)C(C)(C)C3)n1 (stereo not drawn)
Activity [1]: > 80% | Activity [2]: > 80% | Activity [3]: > 80% | Activity [4]: > 80% | Activity [5]: > 80% | IC50 [6]: 66 µM | Activity [7]: 6% | Activity [8]: > 80% | Activity [9]: > 80% | Activity [10]: > 80% | Activity [11]: > 80% | Activity [12]: > 80% | inhibition [13]: 100% | Activity [14]: > 80% | Activity [15]: > 80% | IC50 [16]: 0.08 µM | inhibition [17]: Active | Activity [18]: > 80% | Activity [19]: > 80% | Activity [20]: > 80% | Activity [21]: 11% | Activity [22]: 34% | Activity [23]: > 80% | inhibition [24]: Dose-dependent effect | Activity [25]: 60 to 80% | Activity [26]: > 80% | Activity [27]: > 80% | Activity [28]: > 80%
